Measured values from patent EP1058679B1.

Conditions: from CC[Si](CC)(CC)O[C@@H](CC(=O)O)C(C)(C)C(=O)[C@H](C)[C@@H](OC(=O)OCC(Cl)(Cl)Cl)[C@@H](C)CCC/C(C)=C\C[C@H](O)/C(C)=C/c1csc(C)n1; ester bond; 2,4,6-trichlorobenzoyl chloride, Et3N, DMAP; toluene; 0.79 mM; 25.0 °C; 3.5 h

With CC[Si](CC)(CC)O[C@H]1CC(=O)O[C@H](/C(C)=C/c2csc(C)n2)C/C=C(/C)CCC[C@H](C)[C@H](OC(=O)OCC(Cl)(Cl)Cl)[C@@H](C)C(=O)C1(C)C as the compound, how does the ring closure, yield of all isomers read?
The ring closure, yield of all isomers was 78%.
